Source: patent publication US20090053290A1, “TRANSDERMAL DRUG DELIVERY COMPOSITIONS AND TOPICAL COMPOSITIONS FOR APPLICATION ON THE SKIN” (priority 2006, published 2009)

Tests used:
onychomycosis = conditions: nail lacquer, topical; cited from earlier work
[1] = in vivo; cited from earlier work
[2] = in vivo; cited from earlier work; remark: listed apart in the source
NIH 3T3 cells = conditions: mouse, 72 h
Description: NIH 3T3 cells were used in these studies. Cells were cultured in 24-well plates at a density of 5×10^6 cells/well in 10% FBS/DMEM overnight. […] Cells were incubated for 72 hours before cell counting and morphological studies.

bovine tendon = assay: Melting temperature measurement of fixed tissue (cross-linking), tendon; conditions: 48 hours; PA 0.5% in PBS, GA 0.625% in PBS; n = 3; in °C
Description: (§1) The fixed tissues and fresh tissues were assayed for their melting temperature by heating tissue strips (1×2 cm^2, n=3). The melting temperature was recorded when tissues started to shrink.

Fischer 344 rats = test system: Fischer 344 rats
From the text: Three-week-old Fischer 344 rats were obtained from Harlan Sprague Dawley, Inc. (Indianapolis, Ind.). NIH and University of Southern California IACUC guidelines for the care and use of laboratory animals were observed. […] The samples were retrieved after 3 and 6 weeks post-operation, and samples were processed for H&E and von Kossa staining, the latter to determine the extent of calcification.

human skin fibroblasts = assay: Cell proliferation and collagen synthesis of fibroblasts cultured on treated pericardium; type: cell-based; conditions: p<0.005 for treated pericardium, FIG. 9
Description: Discs, 15 mm in diameter, were punched out from PA-treated bovine pericardium and inserted into the bottom of 24-well plates. After washing and equilibrating with PBS, human skin fibroblasts (8×10^4/well, third passage kindly provided by Dr. Warren Garner, University of Southern California) were placed on top of the tissues. After 48 hours of culture in 10% FBS/DMEM, the medium was changed to a labeling medium ([^3H]thymidine, 10 μCi/mL, 0.5% FBS/DMEM) followed by a 24 hour labeling period. Cell proliferation was assayed and collagen synthesis recorded as [^3H]OH-proline incorporation in a culture medium containing 25 μg/mL ascorbic acid, 25 μg/mL β-APN and 25 μCi/mL [^3H]proline in 0.5% FBS/DMEM after labeling for 48 hours.

collagenase = type: biochemical
Description: Tissue integrity was checked at the end of the incubation using a standard histological method (hematoxylin-eosin (H&E)). […] At predetermined intervals, 1.0 mL of solution was taken out and filtered through a 0.45-μM cellulose filter to separate solubilized collagen from insolubilized matrix. The amount of solubilized collagen was determined after total acid hydrolysis in 6N HCl for 24 hours at 100° C. by measuring hydroxyproline. The results are expressed as a percentage of the total collagen solubilized.

bovine pericardium = assay: Melting temperature measurement of fixed tissue (cross-linking), pericardium; conditions: 48 hours; PA 0.5% in PBS, GA 0.625% in PBS; n = 3; in °C
Description: as §1

With Cc1cc(C2CCCCC2)n(O)c(=O)c1 [Ciclopirox] as the compound, how does the cure rate (onychomycosis) read?
Its cure rate is less than 10%.

With CC1=C(/C=C/C(C)=C/C=C/C(C)=C/C(=O)O)C(C)(C)CCC1 [tretinoin, All-trans-retinoic acid] as the compound, how does the absorption [1] read?
Its absorption is “less than 2%”.

For CC(=O)Oc1ccccc1C(=O)O [Aspirin, aspirin], which “period of inhibition of blood clotting” value [2] is on record?
Its value is 4 to 7 days.

For O=CCCCC=O [GA, glutaraldehyde], which “concentration above which cells could not survive” value (NIH 3T3 cells) is on record?
Its value is “greater than 0.6 μg/mL”.

What about the “concentration at which cytotoxicity was observed” value (NIH 3T3 cells) of the same compound?
The value was no more than 600 ng/mL.

What about the “Melting temperature, tendon” value (bovine tendon) of the same compound?
Its value is 84 ± 1.0.

What about the “degradation of fixed tissue after subcutaneous implantation (summary)” value (Fischer 344 rats; periods ranging from 3 and 6 weeks) of the same compound?
The value was “no apparent degradation”.

And the “calcification of implant (Von Kossa staining)” value (Fischer 344 rats; rat, in vivo, sc)?
The value was “dystrophic calcification”.

And the “implant degradation, six weeks postoperatively” value (Fischer 344 rats; subcutaneous)?
Its value is “still intact”.

And the “implant integrity, three weeks postoperatively” value (Fischer 344 rats; subcutaneous)?
Its value is “retained their integrity”.

And the “tissue reaction to implant, one week postoperatively” value (Fischer 344 rats; subcutaneous, treated pericardium, H&E)?
The value was “lesser inflammatory reaction”.

What about the “collagen synthesis / deposition (hydroxyproline incorporation)” value (human skin fibroblasts) of the same compound?
Its value is “inhibit collagen synthesis”.

And the “collagen fibril structure after 24 hours of collagenase digestion (H&E)” value (collagenase)?
The value was “remained intact”.

What about the “Melting temperature, pericardium” value (bovine pericardium) of the same compound?
The value was 94 ± 1.5.
